Measurements taken from US20170252362A1, “METHODS & COMPOUNDS USEFUL IN HEMATOPOIETIC STEM CELL MEDICINE” (ECOLE POLYTECHNIQUE FEDERALE DE LAUSANNE (EPFL), priority 2014, published 2017).

Experiments:
[1] = tested on: blood recovery and survival of transplanted mice; experiment: Survival and blood recovery of lethally irradiated, transplanted mice treated with the agent; assay type: in vivo, mouse; settings: for blood recovery of post-transplanted mice (platelets, granulocytes/neutrophils): Example 8, FIG. 9D, treated recipients versus control
Experimental: Given the dependency of differentiated hematopoietic cells to the progenitor compartments, the effect of a mitochondrial membrane potential reducing agent according to the invention, in particular NR, in improving blood recovery and survival of transplanted mice was assessed. Peripheral blood count started at day 13 after transplantation, and it was repeated every 3 or 4 days.
(§1) C57Bl/6J and C57Bl/6J Ly5.1 were purchased from Charles River Laboratories International and maintained in micro-isolator cages. Mice were provided continuously with sterile food, water and bedding. Nicotinamide riboside (NR) (custom synthesized as triflate salt by Novalix in Strasbourg) was supplied in the food at 0.4 g/Kg mouse and mice were treated for 1 and 4 weeks respectively.

[2] = tested on: HSC activity of donor bone marrow; experiment: Transplantation of BM derived from agent-treated donor mice (engraftment, blood chimerism); assay type: in vivo, mouse; settings: for short-term HSC activity of transplanted BM from treated donors (blood chimerism): Example 8, FIG. 9C, compared to control group
Description: Therefore, NR-treatment is not expected to exhaust the LT-HSC population, which is often the problem when increasing short-term HSCs and their progeny.

[3] = tested on: HSCs; settings: CFSE labeling, culture with FCCP
Experimental: Freshly sorted LT-HSCs were incubated for 20 min at 37° C. with 1:400 CFSE stock solution (Cayman chemicals; CFSE cell division assay kit). The cells were pelleted and re-suspended in 1 ml of Stemline II (Sigma) containing 10% FBS for 20 min at 37° C. Thereafter, the cells were washed twice with 1 ml of Stemline II (Sigma) and put in culture.

[4] = tested on: LT-HSC:TMRM^low cells; settings: 100 LT-HSC:TMRM^low cells, two days differentiation conditions with FCCP
Experimental: (§2) HSCs were cultured under ‘expansion’ conditions in U-bottom 96-well plates for five days. Cultures were maintained in Stemline II (Sigma) supplemented with 10 μg/ml Heparin (Sigma), 100 ng/ml SCF (R&D Systems), 2 ng/ml Flt3 ligand (R&D), 20 ng/ml TPO (R&D Systems), 10 ng/ml FGF-1 (Invitrogen), 500 ng/ml IGFBP2 (R&D Systems), 100 ng/ml AngL-3 (R&D Systems). At the end of the culture period cells were stained with TMRM and analyzed or sorted by flow cytometry. To induce differentiation, HSCs were cultured in basal medium (Stemline II containing 100 ng/ml SCF and 2 ng/ml Flt3 ligand) supplemented with 20 ng/ml IL-3 (R&D Systems) and 100 ng/ml IL-6 (R&D Systems).
(§3) In a first series of experiments, quantitative clonal differentiation assays (short- and long-term colony forming unit (CFU) assays as described above) were used to test to which extent mitochondrial uncoupling could influence the colony forming behavior and efficiency of hematopoietic stem and progenitor cells (FIG. 4A-C).
(§4) For some experiments, 5 or 10 μM Carbonyl cyanide 4-(trifluoromethoxy) phenylhydrazone (FCCP) (Sigma) was added at the medium. FCCP stock solution was prepared by dissolving the powder in ethanol at 10 mM concentration.

[5] = tested on: whole bone marrow cells; settings: differentiation conditions, two days with FCCP
Experimental: as §2, §3, §4

[6] = tested on: LT-HSC:TMRM^low cells; settings: five days differentiation condition (SCF, Flt3, IL-3, IL-6), 5 μM FCCP, progeny transplanted
Experimental: 100 LT-HSC:TMRM^low cells were cultured for five days under differentiation-inducing conditions in the presence or absence of 5 μM FCCP. Cell progeny were transplanted in lethally irradiated recipient mice together with 2*10^6 helper cells. Peripheral blood was collected at 4, 8 and 12 and 16 weeks to determine the level of chimerism as described above.
For transplants of HSC cultured exposed to the uncoupler FCCP, 100 LT-HSC:TMRM^low cells were cultured for five days under differentiation-inducing conditions in the presence or absence of 5 μM FCCP. Cell progeny were transplanted in lethally irradiated recipient mice together with 2*10^6 helper cells. Peripheral blood was collected at 4, 8 and 12 weeks to determine the level of chimerism.

[7] = tested on: cultured HSCs; settings: flow cytometry
Experimental: NADH autofluorescence was measured by flow cytometry with UV laser (ex: 350 nm, em: 460 nm).
Specifically, culture conditions that would rapidly differentiate HSCs into highly proliferative MPPs were chosen and the effect of blocking the establishment of ΔΨm on the maintenance of stemness was investigated. For that purpose, trifluorocarbonylcyanide phenylhydrazone (FCCP) which permeabilizes the inner mitochondrial membrane and disrupts its potential was used as an uncoupling agent of the electron transport from ATP generation.

[8] = tested on: HSC mitochondrial activity; experiment: In vivo assay of HSC mitochondrial activity: TMRM flow cytometry of freshly isolated HSC from mice fed the compounds; design: species or system mouse
Description: The effect of agents on HSC mitochondrial activity has been assessed by measuring mitochondrial activity in vivo: freshly isolated HSC from mice fed with the compounds were stained by TMRM and analyzed by flow cytometry.

[9] = tested on: hematopoietic stem and progenitor pool sizes in the bone marrow; experiment: Flow cytometry analysis of hematopoietic stem and progenitor pool sizes in bone marrow of mice fed the agent; assay type: in vivo, mouse; settings: for number of hematopoietic stem cells (ST-HSC / most primitive HSC) by flow cytometry: Example 8, one week treatment, FIG. 9A
Experimental: Bone marrow (BM) cells were isolated from C57Bl/6J and C57Bl/6J Ly5.1 from crushed femora and tibia. Flow cytometry analysis of hematopoietic stem and progenitor cells was performed on freshly isolated bone marrow (BM). Cell suspensions were filtered through a 70 μm cell strainer and erythroid cells were eliminated by incubation with red blood cells lysis buffer (eBioscences). Lineage-positive cells were removed with a magnetic lineage depletion kit (Miltenyi Biotech). Cell suspensions were stained with a panel of specific antibodies for stem and progenitor cells and analyzed or FACS-sorted respectively on a BD LSRII and BD FACS Aria II.
as §1

[10] = tested on: hematopoietic progenitor compartments; experiment: Colony-forming functional assay (CFUs, Methocult) on BM derived from agent-treated mice; assay type: in vivo, mouse
[11] = tested on: human hematopoiesis; experiment: Human hematopoiesis in humanized NSG mice fed NR-supplemented diet; assay type: in vivo, human CD34+ cells in NSG mice; settings: supplemented diet for one week
Description: NOD scid gamma (NSG) mice which are a mouse strain NOD Cg-Prkdcscid Il2rgtm1Wjl/SzJ (005557) which correspond to a mutant mouse which combines the features of the NOD/ShiLtJ background (conferring a number of deficiencies in innate immunity), the severe combined immune deficiency mutation (SCID) and an IL2 receptor gamma chain deficiency which disables cytokine signaling, were purchased from The Jackson Laboratory and bred, treated, and maintained under pathogen-free conditions in-house. New-born NSG mice were irradiated with 1Gy and 6 hours later injected intra-hepatically (IH) with 10e6 human CD34 HSCs (purified CD34+ from mobilized blood, Cellsystems Biotechnologie GmbH, Troisdorf, DE). The level of human reconstitution (% of human CD45+ cells) was analyzed 12 weeks later by FACS staining of tail vein blood samples. […] From the following day one cohort was given low fat food supplemented with NR as compared to the group treated with NA or Acipimox (n=10-12 mice/group), as indicated above, and the other cohort was given control diet. After seven days, tail vein blood was collected in EDTA tubes and mice sacrificed. Bone marrow cells were collected as described for C57BL6 mice, and both blood and bone marrow cells stained and analyzed for a panel of human lineage specific antibodies as described. […]

[12] = tested on: HSCs; experiment: Single cell proliferation kinetics and division synchrony by time-lapse microscopy; assay type: cell-based, mouse; settings: single cell level
Experimental: Furthermore, at single cell level the effect of NR on cell proliferation kinetics was determined as described previously ([…] et al., 2012, supra). […] To follow the behavior of HSCs at single cell level, cells were sorted directly into 96-well plates coated with microwell arrays. Microwells containing a single cell at the time of plating were tracked by time-lapse microscopy. Proliferation kinetics were assessed using a Zeiss Axio Observer microscope equipped with an incubator chamber, temperature and CO2 control. Images were automatically acquired every three hours over five days using the imaging analysis software of MetaMorph (Visitron, Germany). Hydrogel microwell arrays were directly casted within individual wells of a 96-well plate as described (Kobel et al., 2009, Langmuir, 25(15):8774-9; Lutolf et al., 2009, Integr Biol (Camb), 1(1):59-69). Briefly, stoichiometrically balanced aqueous solutions of multi-arm poly(ethylene glycol) (PEG), end-functionalized with thiol and vinylsulfone groups were mixed and molded against a PDMS microstamp. Upon completion of crosslinking, the stamp was removed and the hydrogel microwell array was hydrated overnight at 4° C. and then sterilized with ultraviolet light.

[13] = tested on: HSC mitochondrial activity; experiment: In vitro HSC mitochondrial activity with JC1 and TMRM dyes; assay type: cell-based, mouse
Description: The effects of NR on HSC mitochondrial activity has been assessed by measuring mitochondrial activity using JC1 (Mantel et al., 2010, Cell Cycle, 9(10), 2008-17) and TMRM dyes (Vannini et al., 2015, in preparation; Nakada et al., 2010, Nature, 468, 653-658).
The effect of agents on HSC mitochondrial activity has been assessed by measuring mitochondrial activity as described in Example 7 above.

[14] = tested on: HSCs; experiment: In vivo activation of HSC by IFN-α, cell cycle (Ki67) and ΔΨm analysis; design: species or system mouse
Experimental: In order to verify this hypothesis, cell cycle phase analyses were performed using Ki67 and Hoechst staining as described below on freshly isolated HSCs that were separated into low and high ΔΨm. […] Under homeostatic conditions, quiescent state, corresponding to ca. 70% of cells, and cycling HSCs have indistinguishable ΔΨm profiles.
A similar analysis was performed on HSCs that were activated to exit dormancy directly in vivo using interferon-alpha (IFN-α) treatment of mice (Essers et al., 2009, Nature 458, 904-908) through subcutaneous injections of IFN-α carried out 48 and 24 hours prior to cell isolation.
HSC were activated to exit dormancy by interferon-alpha (IFN-α) treatment following published protocols (Essers et al., 2009, supra). Briefly, subcutaneous injections in C57B1/6J mice were carried out with 10,000 U of IFN-α (R&D systems) 48 and 24 hours prior to bone marrow extraction. Control mice were injected with an equivalent volume of the vehicle (PBS+0.1% BSA).

Cc1cnc(C(=O)O)c[n+]1[O-] [Acipimox, acipimox, reference compound]
blood recovery of post-transplanted mice (platelets, granulocytes/neutrophils) [1]: slower platelet and granulocyte recovery | short-term HSC activity of transplanted BM from treated donors (blood chimerism) [2]: no significant difference

N#CC(C#N)=NNc1ccc(OC(F)(F)F)cc1 [FCCP, Carbonyl cyanide 4-(trifluoromethoxy)phenylhydrazone]
divisional history (induction of quiescence) [3]: all cells in culture are rapidly dividing several times | colonies derived from the most primitive cells (CFU-GEMM) [4]: concomitant increase | frequency of colonies derived from the more committed progenitors (Mk, G, M and GM) [4]: striking decrease in the frequency of colonies | total number of colonies ([5]; 15'000 whole bone marrow cells): striking decrease in the total number of colonies | percentage of clonogenic multi-lineage colonies (CFU-GEMMs) ([5]; whole bone marrow cells): increase in the percentage of clonogenic multi-lineage colonies | percentage of colonies derived from more committed progenitors (M, GM) ([5]; whole bone marrow cells): markedly decreased | long-term multilineage blood reconstitution in recipient mice [6]: dramatically higher levels of long-term multilineage blood reconstitution | NADH levels [7]: decreased NADH levels

O=C(O)c1cccnc1 [NA, nicotinic acid, reference compound]
ability to reduce mitochondrial membrane potential in HSCs ([8]; mice fed with the compounds): not able to significantly reduce mitochondrial membrane potential in HSCs | number of hematopoietic stem cells (ST-HSC / most primitive HSC) by flow cytometry [9]: do not show a significant difference | Megakaryocytes (MkE) colonies ([10]; Example 8, FIG. 9B): reduction of Megakaryocytes (MkE) colonies | progenitor population / total and myeloid colonies in CFUs from BM of treated mice ([10]; Example 8, FIG. 9B): do not show a significant difference in total and myeloid colonies

NC(=O)c1ccc[n+]([C@@H]2O[C@H](CO)[C@@H](O)[C@H]2O)c1 [NR, nicotinamide riboside]
number of short-term HSCs with low mitochondrial activity ([8]; freshly isolated HSC from fed mice, TMRM, FIG. 12): able to push the number of short-term HSCs with low mitochondrial activity very significantly | blood recovery of post-transplanted mice (platelets, granulocytes/neutrophils) [1]: faster exit of neutropenia and thrombocytopenia | survival of transplanted mice ([1]; limiting-dose transplanted mice, all untreated mice died within one month): 80% | exit of neutropenia (neutrophils >0.5 G/l) relative to controls ([1]; transplanted mice, on average): one week before controls | recovery from severe thrombocytopenia (platelet count >100 G/l) earlier relative to control mice ([1]; transplanted mice, on average): 10 days | neutrophil and platelet recovery ([1]; transplanted mice, peripheral blood counts from day 13): faster neutrophil and platelet recovery | hematopoietic stem and progenitor compartments in BM ([9]; 1 week treatment through the food, flow cytometry): increased cellularity is observed in all hematopoietic progenitor compartments | hematopoietic progenitor compartments in BM ([9]; 4 weeks treatment through the food, flow cytometry): only the short-term compartment (ST-HSC) is expanded | number of hematopoietic stem cells (ST-HSC / most primitive HSC) by flow cytometry [9]: expanded ST-HSC compartment | HSC pool ([9]; short- and long-term treatment): not accompanied by a reduction of the HSC pool | human lymphocyte production [11]: significant increase in lymphocyte production | human monocyte production [11]: trend towards increased monocyte production | asynchronous division [12]: significant increase in asynchronous division | proliferation kinetics [12]: do not have a major change in their proliferation kinetics | mitochondrial activity of HSCs ([13]; HSCs exposed in vitro, JC1 and TMRM): robust decrease in mitochondrial activity | proportion of cells with low mitochondrial activity ([13]; dividing HSCs in vitro): raised the proportion of cells with low mitochondrial activity | percentage of cells with high mitochondrial activity ([13]; in vitro, compared to control conditions): reduces the percentage of cells with high mitochondrial activity to half | percentage of HSC daughters that maintain a low mitochondrial activity ([13]; in vitro, control about 5%): about 10% | engraftment of BM derived from treated mice ([2]; 1-month treated donor mice, transplantation assay): do not show engraftment advantage | short-term HSC activity of transplanted BM from treated donors (blood chimerism) [2]: higher ST-HSC activity | colonies in CFUs assay from BM of treated mice ([10]; 1 and 4 weeks treatment, especially short-term treated mice): confirmed the expansion of hematopoietic progenitor compartments | lineage of most striking colony increase ([10]; CFUs from BM of treated mice): most striking in the Mk lineage | progenitor population / total and myeloid colonies in CFUs from BM of treated mice ([10]; Example 8, FIG. 9B): expanded progenitor population

IFN-α
ΔΨm levels of quiescent versus cycling HSCs ([14]; after IFN-α treatment, MitoTracker Deep Red): not significantly different | number of cycling (Ki67+) HSCs ([14]; subcutaneous injections 48 and 24 hours prior to cell isolation, control ca. 30): ~50%
